# Test results as given in patent US11311522B1 (Cavion, Inc., priority 2018, dated 2022).
# Tests used:
# [1] = PN005: safety and tolerability; type: in vivo, human
# Excerpt: The visual disturbances tended to cease with eye opening and to recur with eye closure and were generally not disturbing to the subjects. […] No serious adverse events were reported, and none of the subjects discontinued treatment because of an adverse event. […] 5.3.3.1.3.2 Other Safety Assessments No clinically significant trends in safety laboratory parameters or vital signs were observed. […] No changes of ≥60 msec from baseline occurred, and no subject has a QTc interval ≥500 msec. […] The most common adverse events were headache, vivid dreams, and visual and/or auditory disturbances or hallucinations (typically described as seeing geometric shapes, colors, lights, and/or movement and hearing tones like from a telephone or electronic music). […] Clinical safety was monitored throughout the study by adverse events, clinical laboratory tests, vital signs, ECGs, and ECG telemetry.
# [2] = in vivo
# [3] = system: patients with schizophrenia; test: PN004: safety; type: in vivo, human
# Excerpt: The primary efficacy endpoint was the mean change from baseline in the Positive and Negative Syndrome Scale (PANSS) total score at Week 4; secondary efficacy endpoints included responder rates on the PANSS total score at Week 4 and the change from baseline in the Clinical Global Impressions—Severity of Illness Scale at Week 4. Safety was monitored by adverse events, laboratory evaluations, ECGs, Holter monitoring, vital signs, the Simpson-Angus Scale, the Barnes Akathisia Rating Scale, the Abnormal Involuntary Movement Scale, and the Columbia Suicide-Severity Rating scale (C-SSRS).
# [4] = system: patients with essential tremor; test: T-CALM: adverse events, discontinuations, ECG; type: in vivo, human
# Procedure: T-CALM employed the following dose titration scheme: Week 1 at 4 mg BID (8 mg/day), Week 2 at 8 mg BID (16 mg/day) and Weeks 3 & 4 at 10 mg BID (20 mg/day). […] Adverse Events were coded using MedDRA V20.0. Only treatment emergent adverse events with an onset date and time after the initiation of study drug until 30 days after discontinuation of drug were reported. For subjects who experience the same coded event more than once, a single event was presented. Adverse events were attributed to a study week based on the onset date, i.e. events that started on or after Visit 1 and prior to Visit 2 were classified as Study Week 1.
# Electrocardiogram results were calculated as the average of the triplicate records at each time point. Baseline was defined as the mean of the triplicate values obtained pre-dose at Day 1. If this value was not available, the mean of the triplicate records obtained at screening were used.
# Adverse events are characterized by maximum severity, drug-related adverse events, serious adverse events and adverse events leading to discontinuation of study.
# Safety procedures involved collection of all TEAEs (treatment-emergent adverse events) coded into the Medical Dictionary for Regulatory Activities (MedDRA) version 20. Adverse events were classified by maximum severity, drug-related adverse events, serious adverse events, and adverse events leading to patient discontinuation.
# [5] = 90-day oral toxicology in rats; settings: both, rat, in vivo
# Cav3.2 = biological target: T1, Cav3.2 (Homo sapiens, UniProt O95180); test: Cav3.2 electrophysiology; type: cell-based; settings: Vh=−80 mV
# T1 construct: expressed in transfected cells
# slow wave activity = test: PN003: polysomnogram, slow wave activity; type: in vivo, human; settings: 12 mg single dose, 24 subjects, Study PN003
# Procedure: A washout period of at least 2 weeks separated the treatment periods. […] The PSG recordings were initiated at each subject's habitual bedtime and continued for 8 hours.
# [6] = single dose 8 mg, N = 7, middle-aged and elderly female subjects, Study PN005
# [7] = Study PN004, subjects with schizophrenia, BID Days 1 to 28, CX-8998 N = 86, Olanzapine N = 47
# T1 sequence (O95180 whole entry): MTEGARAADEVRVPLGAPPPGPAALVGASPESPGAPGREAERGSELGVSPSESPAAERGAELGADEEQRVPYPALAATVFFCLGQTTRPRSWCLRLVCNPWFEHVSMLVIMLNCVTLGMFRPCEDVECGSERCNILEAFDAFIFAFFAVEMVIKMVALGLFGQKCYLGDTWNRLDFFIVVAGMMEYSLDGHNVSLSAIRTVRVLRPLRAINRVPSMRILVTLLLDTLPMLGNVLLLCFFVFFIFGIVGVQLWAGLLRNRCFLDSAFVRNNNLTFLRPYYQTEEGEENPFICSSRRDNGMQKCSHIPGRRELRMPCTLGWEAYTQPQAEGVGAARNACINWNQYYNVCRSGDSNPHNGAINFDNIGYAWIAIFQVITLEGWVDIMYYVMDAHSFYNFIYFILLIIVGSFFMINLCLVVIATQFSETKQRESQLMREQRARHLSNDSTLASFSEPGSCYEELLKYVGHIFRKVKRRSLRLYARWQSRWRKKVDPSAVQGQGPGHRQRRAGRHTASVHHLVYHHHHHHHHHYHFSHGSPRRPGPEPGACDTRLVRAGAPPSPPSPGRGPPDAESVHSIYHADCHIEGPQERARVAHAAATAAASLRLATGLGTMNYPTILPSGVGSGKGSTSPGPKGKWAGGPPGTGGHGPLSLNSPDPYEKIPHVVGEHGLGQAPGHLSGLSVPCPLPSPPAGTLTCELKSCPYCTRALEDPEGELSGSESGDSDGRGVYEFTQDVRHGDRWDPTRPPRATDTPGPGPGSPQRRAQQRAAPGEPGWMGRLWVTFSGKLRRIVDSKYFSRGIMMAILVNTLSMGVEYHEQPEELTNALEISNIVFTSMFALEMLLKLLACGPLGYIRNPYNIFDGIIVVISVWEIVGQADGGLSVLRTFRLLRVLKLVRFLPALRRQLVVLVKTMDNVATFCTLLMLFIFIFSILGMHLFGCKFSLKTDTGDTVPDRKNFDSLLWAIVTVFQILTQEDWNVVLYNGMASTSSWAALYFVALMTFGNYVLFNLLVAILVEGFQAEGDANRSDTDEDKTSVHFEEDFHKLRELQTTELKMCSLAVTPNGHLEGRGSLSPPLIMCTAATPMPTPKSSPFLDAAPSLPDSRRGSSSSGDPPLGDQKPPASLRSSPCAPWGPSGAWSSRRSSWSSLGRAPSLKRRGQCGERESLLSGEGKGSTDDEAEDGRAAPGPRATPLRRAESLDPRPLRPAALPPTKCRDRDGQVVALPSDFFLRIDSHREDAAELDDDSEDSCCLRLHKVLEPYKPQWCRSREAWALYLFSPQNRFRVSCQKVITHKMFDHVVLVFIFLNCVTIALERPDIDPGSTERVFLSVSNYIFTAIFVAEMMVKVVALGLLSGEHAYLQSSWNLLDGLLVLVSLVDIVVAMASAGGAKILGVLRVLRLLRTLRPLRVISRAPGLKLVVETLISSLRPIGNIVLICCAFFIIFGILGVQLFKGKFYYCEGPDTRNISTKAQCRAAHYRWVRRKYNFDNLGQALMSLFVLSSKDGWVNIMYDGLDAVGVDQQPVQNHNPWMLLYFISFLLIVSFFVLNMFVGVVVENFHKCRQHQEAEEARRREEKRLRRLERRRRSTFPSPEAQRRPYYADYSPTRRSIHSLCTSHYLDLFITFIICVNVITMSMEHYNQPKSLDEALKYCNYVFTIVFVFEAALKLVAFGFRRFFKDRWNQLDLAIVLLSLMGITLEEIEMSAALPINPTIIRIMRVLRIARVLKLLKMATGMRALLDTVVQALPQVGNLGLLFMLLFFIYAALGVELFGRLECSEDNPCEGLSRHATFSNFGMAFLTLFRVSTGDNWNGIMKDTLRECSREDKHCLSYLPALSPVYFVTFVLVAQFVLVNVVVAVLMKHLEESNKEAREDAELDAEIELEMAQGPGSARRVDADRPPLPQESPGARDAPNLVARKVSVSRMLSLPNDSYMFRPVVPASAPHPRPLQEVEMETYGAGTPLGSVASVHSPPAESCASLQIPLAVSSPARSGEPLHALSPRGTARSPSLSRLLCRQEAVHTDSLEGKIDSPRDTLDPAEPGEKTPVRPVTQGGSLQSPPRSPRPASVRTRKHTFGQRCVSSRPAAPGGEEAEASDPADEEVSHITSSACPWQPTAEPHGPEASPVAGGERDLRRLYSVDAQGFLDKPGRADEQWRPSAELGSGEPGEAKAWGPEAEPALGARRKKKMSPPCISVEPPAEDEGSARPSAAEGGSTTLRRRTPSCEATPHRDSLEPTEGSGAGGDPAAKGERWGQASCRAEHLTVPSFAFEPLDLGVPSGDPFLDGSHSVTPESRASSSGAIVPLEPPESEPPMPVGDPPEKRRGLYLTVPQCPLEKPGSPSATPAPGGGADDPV
compound,measurement,setting,value
CC(C)c1ccc(CC(=O)N[C@H](C)c2ccc(OCC(F)(F)F)cn2)cc1 [CX-8998],Tolerability,[1]; single 8 mg dose,well tolerated
same,Alanine aminotransferase increased,[1]; [6],1 (14.3) n (%)
same,At least 1 adverse event,[1]; [6],6 (85.7) n (%)
same,Dry mouth,[1]; [6],1 (14.3) n (%)
same,Eye Disorders,[1]; [6],1 (14.3) n (%)
same,Gastrointestinal Disorders,[1]; [6],3 (42.9) n (%)
same,Hot flush,[1]; [6],1 (14.3) n (%)
same,Hypoaesthesia oral,[1]; [6],1 (14.3) n (%)
same,Inappropriate laughter,[1]; [6],2 (28.6) n (%)
same,Infections and Infestations,[1]; [6],1 (14.3) n (%)
same,Investigations,[1]; [6],1 (14.3) n (%)
same,Irritability,[1]; [6],1 (14.3) n (%)
same,Nausea,[1]; [6],1 (14.3) n (%)
same,Nervousness,[1]; [6],1 (14.3) n (%)
same,Psychiatric Disorders,[1]; [6],4 (57.1) n (%)
same,Racing thoughts,[1]; [6],1 (14.3) n (%)
same,Shingles,[1]; [6],1 (14.3) n (%)
same,Vascular Disorders,[1]; [6],1 (14.3) n (%)
same,Vision blurred,[1]; [6],1 (14.3) n (%)
same,Vomiting,[1]; [6],1 (14.3) n (%)
same,Micronuclei induction in bone marrow result,[2],negative
same,Anxiety,[3]; [7],2 (2.3)
same,At least 1 adverse event,[3]; [7],41 (47.7)
same,Chronic pharyngitis,[3]; [7],2 (2.3)
same,Dizziness,[3]; [7],2 (2.3)
same,Headache,[3]; [7],2 (2.3)
same,Insomnia,[3]; [7],13 (15.1)
same,Rhinopharyngitis,[3]; [7],2 (2.3)
same,Schizophrenia,[3]; [7],3 (3.5)
same,Sinus tachycardia,[3]; [7],2 (2.3)
same,Somnolence,[3]; [7],2 (2.3)
same,Subjects who discontinued treatment because of adverse events,[3]; in vivo,10.5%
same,Subjects with dizziness and vertigo,[3]; in vivo,4.7%
same,"Discontinuation due to Nervous System Disorders, subjects n (%)",[4]; N = 48,4 (8%)
same,"Discontinuation due to Psychiatric Disorders, subjects n (%)",[4]; N = 48,4 (8%)
same,"Dosage reduced Due to adverse event, subjects n (%)",[4]; N = 48,3 (6%)
same,"Dosage reduced during study, subjects n (%)",[4]; N = 48,4 (8%)
same,"Subjects with at least 1 event leading to discontinuation, n (%)",[4]; N = 48,8 (17%)
same,"Dosage reduced Due to other reasons, subjects n (%)","[4]; N = 48, subject had inadequate drug supply at Visit 4",1 (2%)^3
same,"TEAE Abnormal dreams, subjects n (%)","[4]; Safety Analysis Set, n = 48",2 (4%)
same,"TEAE Disturbance in attention, subjects n (%)","[4]; Safety Analysis Set, n = 48",2 (4%)
same,"TEAE Dizziness, subjects n (%)","[4]; Safety Analysis Set, n = 48",10 (21%)
same,"TEAE Dry mouth, subjects n (%)","[4]; Safety Analysis Set, n = 48",2 (4%)
same,"TEAE Dysgeusia, subjects n (%)","[4]; Safety Analysis Set, n = 48",2 (4%)
same,"TEAE Ear and Labyrinth Disorders (system organ class), subjects n (%)","[4]; Safety Analysis Set, n = 48",2 (4%)
same,"TEAE Euphoric mood, subjects n (%)","[4]; Safety Analysis Set, n = 48",3 (6%)
same,"TEAE Gastrointestinal Disorders (system organ class), subjects n (%)","[4]; Safety Analysis Set, n = 48",9 (19%)
same,"TEAE Hallucination, subjects n (%)","[4]; Safety Analysis Set, n = 48",2 (4%)
same,"TEAE Headache, subjects n (%)","[4]; Safety Analysis Set, n = 48",4 (8%)
same,"TEAE Hypesthesia, subjects n (%)","[4]; Safety Analysis Set, n = 48",0
same,"TEAE Infections and Infestations (system organ class), subjects n (%)","[4]; Safety Analysis Set, n = 48",4 (8%)
same,"TEAE Insomnia, subjects n (%)","[4]; Safety Analysis Set, n = 48",3 (6%)
same,"TEAE Nausea, subjects n (%)","[4]; Safety Analysis Set, n = 48",1 (2%)
same,"TEAE Nervous System Disorders (system organ class), subjects n (%)","[4]; Safety Analysis Set, n = 48",20 (42%)
same,"TEAE Paraesthesia, subjects n (%)","[4]; Safety Analysis Set, n = 48",2 (4%)
same,"TEAE Somnolence, subjects n (%)","[4]; Safety Analysis Set, n = 48",1 (2%)
same,"TEAE Tinnitus, subjects n (%)","[4]; Safety Analysis Set, n = 48",2 (4%)
same,"TEAE Urinary Tract Infection, subjects n (%)","[4]; Safety Analysis Set, n = 48",2 (4%)
same,"TEAE Vomiting, subjects n (%)","[4]; Safety Analysis Set, n = 48",0
same,"Subjects with at least 1 treatment-emergent adverse event, n (%)","[4]; Safety Analysis Set, n = 48, titrated up to 10 mg BID, 4 weeks",28 (58%)
same,Adverse Event (MedDRA Preferred Term) leading to dosage reduction,"[4]; Subject 26-001, Study Day 25, from 10 mg BID to 8 mg BID, Completed study",Anxiety
same,Adverse Event (MedDRA Preferred Term) leading to dosage reduction,"[4]; Subject 31-023, Study Day 8, from 8 mg BID to 4 mg BID, Withdrawn (Day 8), term wraps over r24-r26: Electrocardiogram T-wave abnormal",Electrocardio-
same,Adverse Event (MedDRA Preferred Term) leading to dosage reduction,"[4]; Subject 33-004, Study Day 8, from 4 mg BID to 2 mg BID, Withdrawn (Day 45) Lost to follow-up",Headache
same,Abnormal dreams,"[4]; TEAE, n = 48",2 (4%) n (%)
same,Disturbance in attention,"[4]; TEAE, n = 48",2 (4%) n (%)
same,Dizziness,"[4]; TEAE, n = 48",10 (21%) n (%)
same,Dry mouth,"[4]; TEAE, n = 48",2 (4%) n (%)
same,Dysgeusia,"[4]; TEAE, n = 48",2 (4%) n (%)
same,Ear and Labyrinth Disorders,"[4]; TEAE, n = 48",2 (4%) n (%)
same,Euphoric mood,"[4]; TEAE, n = 48",3 (6%) n (%)
same,Gastrointestinal Disorders,"[4]; TEAE, n = 48",9 (19%) n (%)
same,Hallucination,"[4]; TEAE, n = 48",2 (4%) n (%)
same,Headache,"[4]; TEAE, n = 48",4 (8%) n (%)
same,Hypesthesia,"[4]; TEAE, n = 48",0 n (%)
same,Infections and Infestations,"[4]; TEAE, n = 48",4 (8%) n (%)
same,Insomnia,"[4]; TEAE, n = 48",3 (6%) n (%)
same,Nausea,"[4]; TEAE, n = 48",1 (2%) n (%)
same,Nervous System Disorders,"[4]; TEAE, n = 48",20 (42%) n (%)
same,Paraesthesia,"[4]; TEAE, n = 48",2 (4%) n (%)
same,Somnolence,"[4]; TEAE, n = 48",1 (2%) n (%)
same,Tinnitus,"[4]; TEAE, n = 48",2 (4%) n (%)
same,Urinary Tract Infection,"[4]; TEAE, n = 48",2 (4%) n (%)
same,Vomiting,"[4]; TEAE, n = 48",0 n (%)
same,Discontinuation due to adverse events,[4]; in vivo,8 (17%) n (%)
same,Dosage reduction due to TEAEs,[4]; in vivo,6%
same,Electrocardiogram outlier analysis,[4]; in vivo,no CVS safety signals
same,NOAEL at 90 days,"[5]; Sprague-Dawley, po",300 mg/kg/day
same,NOAEL at 90 days,[5]; oral,300 mg/kg/day
same,IC50,Cav3.2,96 nM
same,"Slow Wave Activity during the First One-Third of the Sleep Period, Geometric Mean",slow wave activity,26.36 μV^2/Hz
same,"Slow Wave Activity during the First One-Third of the Sleep Period, Raw Value Mean",slow wave activity,30.51 μV^2/Hz
